What was measured:
[1] = Toxicity parameters in xenografted mice; assay type: in vivo, C.B-17 SCID mice; details: 2 or 4 mg/kg i.p., 21 days; for changes in body weight or organs (liver, kidney, lung, heart): P > 0.05; for histopathological changes in the hearts: data not shown
From the text: All animals were weighed at the start and end of the experiment to assess toxicological aspects. The animals were continuously examined for anomalies during the trial. The livers, kidneys, lungs, and hearts were removed and weighed before being preserved in 4% formaldehyde, dehydrated in a graded alcohol series, cleaned in xylene, and embedded in paraffin wax. The tissue was sliced into 5 μm thick slices, stained with hematoxylin and/or periodic acid-Schiff (liver and kidney), and histologically evaluated via optical microscopy.

HepG2 cells [2] = test: PARP (Asp214) cleavage by flow cytometry; assay type: cell-based, human; details: HepG2, 24 h; 8 μM complex 1, 6 μM complex 2
Description: (§1) To stain intracellular proteins, the cells were harvested and resuspended in 0.5-1 mL of 4% formaldehyde for 10 min at 37 °C. The tube was then placed on ice for 1 min, after which the cells were prechilled and permeabilized using a sequence of 100% (30 min) to 90% (30 min) methanol with gentle mixing. After washing with incubation buffer (0.5% bovine serum albumin in PBS), primary antibodies were added and incubated for 1 h at room temperature. Finally, the cells were washed with PBS, and flow cytometry was used to measure cell fluorescence.

HepG2 cells [3] = test: EMT markers vimentin and E-cadherin by flow cytometry; assay type: cell-based, human; details: HepG2, 24 h; 6 μM complex 2
Description: To stain the cell surface proteins, the cells were washed with an incubation buffer (0.5% bovine serum albumin in PBS), and then antibodies were added and incubated for 1 h at room temperature. The cells were then washed with PBS, and the fluorescence signal was measured by flow cytometry. CD133 and CD44 were quantified in YO-PRO-1 (Sigma‒Aldrich Co.) negative cells.
as §1

F[P-](F)(F)(F)(F)F.O=c1cc[nH]c([S][Ru+])n1.c1ccc(-c2ccccn2)nc1.c1ccc(P(c2ccccc2)c2ccccc2)cc1.c1ccc(P(c2ccccc2)c2ccccc2)cc1 [Complex 1, trans-[Ru(2TU)(PPh3)2(bipy)]PF6]
histopathological alterations of kidneys, livers, lungs [1]: minor and/or reversible
changes in body weight or organs (liver, kidney, lung, heart) [1]: No significant changes
histopathological changes in the hearts [1]: No significant changes
PARP (Asp214) cleavage (HepG2 cells [2]): increased levels

Cc1cc(=O)nc([S][Ru+])[nH]1.F[P-](F)(F)(F)(F)F.c1ccc(-c2ccccn2)nc1.c1ccc(P(c2ccccc2)c2ccccc2)cc1.c1ccc(P(c2ccccc2)c2ccccc2)cc1 [Complex 2, trans-[Ru(6m2TU)(PPh3)2(bipy)]PF6]
histopathological alterations of kidneys, livers, lungs [1]: minor and/or reversible
changes in body weight or organs (liver, kidney, lung, heart) [1]: No significant changes
histopathological changes in the hearts [1]: No significant changes
E-cadherin expression (HepG2 cells [3]): increased
vimentin expression (HepG2 cells [3]): reduced
PARP (Asp214) cleavage (HepG2 cells [2]): increased levels
